Assay results from patent US8466131B2, “Ligands specific for cannabinoid receptor subtype 2” (University of Pittsburgh—of the Commonwealth System of …, priority 2007, dated 2013).
Entries after “also recorded” stand apart in the source; their conditions may differ.

How the values were obtained:
CB2 receptor = molecular target: T1, CB2 receptor (Homo sapiens, UniProt P34972); assay: forskolin-stimulated cAMP assay in CB2 receptor transfected CHO-K1 cells; format: cell-based; conditions: for effect on CB2 agonist WIN55,212-2 response (cAMP): 1 μM antagonist, with increasing WIN55,212-2, 30 min prior to forskolin (20 μM), FIG. 2; for functional mode of ligand alone (cAMP): ligand alone at increasing concentrations 30 min prior to forskolin (20 μM), FIG. 3
T1 construct: expressed in transfected cells; host or cells: CHO-K1
Procedure: FIG. 2. Confluentially growing CB2 receptor transfected […] CHO-K1 cells were stimulated with forskolin (20 μM) and analyzed for cAMP expression after 30 min. The CB2 agonist WIN55, 212-2 was incubated at increasing concentrations 30 min prior to forskolin stimulation alone or in presence of 1 μM of the antagonists AM630 and the compound of Formula II.
FIG. 3. Confluentially growing CB2 receptor transfected […] CHO-K1 cells were stimulated with forskolin (20 μM) and analyzed for cAMP expression after 30 minutes. CB2 ligands were incubated at increasing concentrations 30 minutes prior to forskolin stimulation.
Cell-based Functional Bioassay Studies. […] Subsequently, further receptor biological studies were performed: i) to examine/assess the G-protein effects of the compound of Formula II upon CB2 receptor binding and ii) to test the compound of Formula II for anti-inflammatory effects.

CB1 cannabinoid receptor = molecular target: T2, CB1 cannabinoid receptor (Rattus norvegicus, UniProt P20272); assay: [3H]-CP-55,940 radiometric competition binding assay, CB1 (rat forebrain membrane); conditions: displacement of 3H-CP 55940, rat forebrain membrane; read-out: CB1 binding affinity (Ki)
T2 construct: from tissue; host or cells: rat forebrain membranes
Procedure: (§1) In-vitro Bio-validation Experiment. To biologically validate the screened hit compounds above, in-vitro [^3H]-radioactive CB ligand binding assays were carried out to determine the CB receptor binding affinity (Ki) of the screened ligands by displacing [^3H]-CP-55,940. The compound of Formula II was obtained from National Cancer Institute (NCI). For each assay, a positive control with a known ligand (SR-141716A for CB1 and SR-144528 for CB2) was run to ensure the reliability of the assay.
For CB1 receptor binding studies, rat forebrain membranes were prepared following the reported procedures. […]
(§2) The experiments were conducted based on reported procedures. […] 1999, 1(3):article 4; Abadji et al., J. Med. Chem. 1994, 37(120:1889-1893; and Abadji et al., J. Neurochem. 1999, 72(5):2032-38. Thus, the competition binding assay was performed using [3H]-CP-55,940 (1 nM) as a radioligand for the CB1 or CB2 cannabinoid receptor (rate brain or mouse spleen membranes), at 30° C. in 96-well microtiter plates, 50 μg of membrane each well re-suspended in 200 μl (final volume) binding buffer (50 mM Tris-HCl, 2.5 mM EGTA, 3 mM MgCl2, 0.1% bovine serum albumin, pH 7.4). The tested compounds were presented at varying concentrations, and the nonspecific binding was determined in the presence of 10 μM CP-55,940 or HU-210. […] The Ki values were calculated by using GraphPad Prism 5.0 (GraphPad Software, Inc.).

CB2 cannabinoid receptor = molecular target: T3, CB2 cannabinoid receptor (Mus musculus, UniProt P47936); assay: [3H]-CP-55,940 radiometric competition binding assay, CB2 (mouse spleen membrane); conditions: displacement of 3H-CP 55940, mouse spleen membrane; read-out: CB2 binding affinity (Ki)
T3 construct: from tissue; host or cells: frozen mouse spleen membranes
Procedure: as §1
For CB2 receptor binding studies, membranes were prepared from frozen mouse spleen. […]
as §2

T1 sequence (P34972 whole entry): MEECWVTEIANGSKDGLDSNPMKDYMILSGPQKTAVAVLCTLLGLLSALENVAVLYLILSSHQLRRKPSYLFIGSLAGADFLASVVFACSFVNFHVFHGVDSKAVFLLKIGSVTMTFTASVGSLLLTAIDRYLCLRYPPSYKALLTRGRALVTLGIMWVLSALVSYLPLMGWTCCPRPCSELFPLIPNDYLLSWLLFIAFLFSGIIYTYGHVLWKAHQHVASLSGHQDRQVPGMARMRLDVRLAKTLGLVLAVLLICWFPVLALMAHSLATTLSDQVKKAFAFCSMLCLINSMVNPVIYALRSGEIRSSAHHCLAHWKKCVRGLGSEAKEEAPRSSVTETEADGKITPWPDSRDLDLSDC
T3 sequence (P47936 whole entry): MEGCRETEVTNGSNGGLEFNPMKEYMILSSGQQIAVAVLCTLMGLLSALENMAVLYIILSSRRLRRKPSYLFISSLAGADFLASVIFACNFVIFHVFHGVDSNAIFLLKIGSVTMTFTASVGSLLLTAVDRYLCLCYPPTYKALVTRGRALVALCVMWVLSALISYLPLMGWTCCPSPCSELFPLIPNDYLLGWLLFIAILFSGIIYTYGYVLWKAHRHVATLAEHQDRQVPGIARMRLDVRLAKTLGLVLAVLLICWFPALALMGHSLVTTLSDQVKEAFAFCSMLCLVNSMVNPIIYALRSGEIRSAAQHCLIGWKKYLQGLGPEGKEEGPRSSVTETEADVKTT
T2 sequence (P20272 whole entry): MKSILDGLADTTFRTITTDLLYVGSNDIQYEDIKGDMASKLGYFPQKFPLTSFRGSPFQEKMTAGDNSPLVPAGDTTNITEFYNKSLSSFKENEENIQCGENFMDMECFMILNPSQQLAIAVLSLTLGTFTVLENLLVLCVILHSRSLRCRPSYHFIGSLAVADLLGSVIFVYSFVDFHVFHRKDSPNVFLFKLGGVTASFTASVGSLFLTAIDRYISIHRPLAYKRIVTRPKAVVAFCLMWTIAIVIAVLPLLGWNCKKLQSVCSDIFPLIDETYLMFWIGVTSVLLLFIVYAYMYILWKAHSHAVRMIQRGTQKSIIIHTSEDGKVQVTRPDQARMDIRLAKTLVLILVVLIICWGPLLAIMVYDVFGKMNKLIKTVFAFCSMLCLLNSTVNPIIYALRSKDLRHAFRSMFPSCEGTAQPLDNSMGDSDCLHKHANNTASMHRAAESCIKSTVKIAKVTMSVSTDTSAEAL

| Molecule | effect on CB2 agonist WIN55,212-2 response (cAMP) (CB2 receptor) | functional mode of ligand alone (cAMP) (CB2 receptor) | effect on Go signaling (CB2 receptor) | concentration at which compound becomes an agonist (cAMP) (CB2 receptor; FIG. 3, running text) [µM] | concentration at which compound is a weak agonist (cAMP) (CB2 receptor; FIG. 3 legend) [mM] | impact on Gi-proteins (CB2 receptor; at concentrations up to low μM) | Ki (CB1 cannabinoid receptor) [µM] | Ki (CB2 cannabinoid receptor) [µM] |
| --- | --- | --- | --- | --- | --- | --- | --- | --- |
| COc1ccc(C(=O)c2c(C)n(CCN3CCOCC3)c3cc(I)ccc23)cc1 [AM630, reference compound] | inhibits the effect of WIN55,212-2 | inverse agonist | – | – | – | – | – | – |
| SR144528 [reference compound] | – | inverse agonist | – | – | – | – | – | – |
| N/C(=N\Cc1ccccc1)C(/N=N/c1ccccc1)C(=O)NCc1ccccc1 (centres unmarked) [Formula II] | inhibits the effect of WIN55,212-2; also recorded: antagonist like the known CB2 antagonist AM630 (but weaker) | weak agonist at high concentration; also recorded: not an inverse agonist | does not affect Go signaling | ~10 | > 7 | does not have an impact on Gi-proteins | 4.18 | 0.0317 |
